# Results as given in patent US5976523A, “Method for healing compromised tissues using pyrimidine derivatives” (Mitsui Pharmaceuticals, Inc., priority 1995, dated 1999).
# Structures can show the parent of a compound that is named as a salt.
# What was measured:
# hepatocytes = assay: DNA and protein synthesis in primary cultured hepatocytes; assay type: cell-based, SD rat
# From the text: (§1) As fulminant hepatitis may develop hepatocellular regeneration failure despite a high HGF concentration in blood, use of a medicament capable of enhancing effects of a growth factor is desired. Activities of a compound according to the present invention as a hepatic medicine were investigated using primary cultured cells and Ito (star) cells of rat.
# An SD male rat of about 200 g in body weight was sacrificed by perfusion of collagenase-containing physiological saline. Hepatocytes were immediately collected and then spread at 5.0×10^4 cells/cm^2 over plates, followed by the initiation of cultivation. Two hours later, the culture medium was replaced by a fresh supply of the culture medium. Twenty-four hours later, EGF and [^3 H]-leucine (1 μCi/ml) were added to half the number of the plates with or without addition of 2-piperidino-7-methyl-6-oxo-5,6-dihydro(7H)pyrro[2,3-d]pyrimidine maleate, respectively. At the same time, EGF was added to the remaining plates with or without addition of the invention compound, respectively. Forty-six hours later, the latter plates were both added further with [^3 H]-tymidine (2 μCi/ml). Forty-eight hours later, each culture was filtered under suction to harvest the cells so cultivated. Trichloroacetic acid (TCA) was added to the thus-harvested cells to obtain a TCA precipitate. The TCA precipitate was formed into a pellet. The pellets which had been obtained from the [^3 H]-tymidine-added cultures, respectively, were each dissolved with 0.1N NaOH. The resulting solution was added to a liquid scintillator and the amount of DNA synthesized by the cells was measured by a liquid scintillation counter. Likewise, the pellets which had been obtained from the [^3 H]-leucine-added cultures, respectively, were each boiled at 70° C. to extract soluble matter. The extract so obtained was also added with TCA to obtain a TCA precipitate. The TCA precipitate was dissolved with 0.1N NaOH. The resulting solution was added to the liquid scintillator and the amount of proteins synthesized by the cells was measured by the liquid scintillation counter.
# Ito (star) cells = assay: DNA and collagen synthesis and αSM expression in Ito (star) cells; assay type: cell-based, SD rat
# From the text: as §1
# On the other hand, an SD male rat of about 300 g in body weight was sacrificed by perfusion of physiological saline containing collagenase and proteinase. Ito (star) cells were collected and then spread at 1.25×10^5 cells/cm^2 over plates, followed by the initiation of cultivation. The cultivation was conducted for 6 days. In a manner similar to the procedures described above, some of the plates were added with the invention compound and [^3 H]-leucine 24 hours before harvest, while the remaining plates were added with the invention compound 24 hours before harvest and were then added with [^3 H]-tymidine two hours before the harvest. The synthesized amount of DNA and that of proteins were measured. Further, after Ito cells were cultured for 6 days, the invention compound and b-FGF were added. Subsequent to cultivation for 30 minutes, […] of ascorbic acid and 0.5 mM of β-aminopropionitrile fumarate were added, followed by cultivation for 1 hour. [2,3-^3 H]-proline (10 μCi/ml) was added, followed by further cultivation for 24 hours. The culture was separated into the culture medium and the resultant cells, and a TCA precipitate was formed. After the precipitate was dissolved with 0.1N NaOH, the cells were incubated in the presence of bacterial collagenase. The reaction was terminated with TCA-tannic acid, followed by the formation of a pellet. A supernatant fraction was added to the liquid scintillator and the amount of proteins synthesized by the cells was measured by the liquid scintillation counter.
# [1] = test system: primary cultured gastric mucosal cells; assay: Wound repair model with primary cultured gastric mucosal cells; assay type: cell-based, rabbit
# Description: Primary cultured gastric mucosal cells were prepared by mechanically peeling and mincing the gastric mucosa of a rabbit having a body weight of 2 kg and then digesting the minced gastric mucosa with 0.07% collagenase. The primary cultured gastric mucosal cells were cultured at a cell concentration of 3.3×10^5 cells/ml in F-12 culture medium containing 10% fetal calf serum added therein. For this cultivation, a culture dish (60 mm in diameter) coated with collagen type I was used. […] Using an anti-BrdU antibody, the cells in the S phase were stained to identify proliferated cells.
# Their effects on the process of restoration were measured under the above-described parameters. […] In each of the control group and the medicament-added groups, the area of the wounded region was measured at the 0th hour, 12th hour, 24th hour, 36th hour and 48th hour. The measurement results will be given in this order.
# The control group and the groups added with the medicament at the respective concentrations were each subjected to the experiment with n=5. The results will each be presented as a (mean±S. D.) mm2. A test of significance was conducted relative to the control group. * stands for p<0.05, ** for p<0.01, *** for p<0.001. A further test of significance was conducted relative to a group added with 10 ng/ml of EGF. + stands for p<0.05, and ++ for <0.01.
# bone defect (tibia) = assay: Rat bone defect model, formation of hyaline cartilage matrix; assay type: in vivo; conditions: bFGF (0.5 μg) pellet, 7th day
# From the text: Action of 2-piperazino-6-methyl-5-oxo-5,6-dihydro(7H)pyrro[3,4-d]pyrimidinemaleate on in vivo chondrogenesis was studied in detail by preparing a rat bone defect model which permits observation of bFGF-derived formation of a hyaline cartilage matrix. Embedment of a bFGF-containing pellet in a bone defect of the model permits easy observation of formation of a hyaline cartilage matrix under the periosteum around the bone defect. Rats were divided into three groups. The rats in one of the groups were each embedded in a formed bone defect (diameter: 2.6 mm) thereof with a hydroxyethyl methacrylate pellet (10 mg) which contained bFGF (0.5 μg). The rats in another one of the groups were each embedded likewise with a hydroxyethyl methacrylate pellet (10 mg) which contained bFGF (0.5 μg) and the invention compound (0.5 mg). The rats in the remaining group, that is, a control group were each embedded similarly with a pellet which contained physiological saline. After the rats in all the three groups were sacrificed seven days later, action of bFGF or the invention compound on the process of chondrogenesis on enchondral ossification around the bone defect was investigated. On the 7th day after the formation of the bone defect, the tibia of each rat was histologically examined around the bone defect.
# [2] = test system: CAMs (chorioallantoic membranes); assay: Angiogenesis on chorioallantoic membranes (CAM); assay type: in vivo, chick; conditions: day 3
# Description: For a bFGF, various assay systems assessing the angiogenesis activity of the bFGF as an index are usable. The shells of chick embryos are fenestrated centrally corresponding to the air spaces thereof, whereby the chorioallantoic membranes (CAMS) are exposed. Solutions of the bFGF and a test medicament at various concentrations were applied onto the respective CAMs. Incubation was continued. Several days later, the degrees of angiogenesis were investigated under a microscope. This method is preferably employed. […] The test medicament is therefore found to be useful for the reduction of a time required for the construction of a skin-equivalent tissue. […] Also with respect to a VEGF, its angiogenesis activity can be assayed in a similar system.
# The shells of eggs on the 10th day after fertilization were fenestrated centrally corresponding to air spaces thereof, whereby CAMs (chorioallantoic membranes) were exposed. A nylon film in the form of a square of 3 mm in side was placed over the CAM, and onto the nylon film, a solution of bFGF as a growth and/or differentiation factor or the pyrimidine compound according to the present invention was dropped in an amount of 8 ul. Incubation was continued at 38° C. On the 72nd hour, the eggs were moved to a cool place controlled at 4° C. After the eggs were left over for 2 to 3 hours there, the degree of angiogenesis in each egg was investigated under a microscope. The angiogenesis was determined based on the number of radial blood vessels equal to or larger than 0.1 mm in diameter. Onto the nylon disk placed over the CAMS, 1, 10, and 100 ng/ml solutions of recombinant human bFGF (product of Genzyme Corporation) in physiological saline and 0.01 to 1 mM solutions of the individual pyrimidine compound in physiological saline were applied singly or in combination.
# [3] = 1 μM to 100 μM, irrespective of b-FGF
compound,measurement,setting,value
"CN1C(=O)Cc2cnc(N3CCCCC3)nc21 [Compound A, 2-piperidino-7-methyl-6-oxo-5,6-dihydro(7H)pyrro[2,3-d]pyrimidine maleate]",concentration of albumin in the supernatant,"hepatocytes; 10 μM compound, with EGF",no change was observed
same,expression of mRNA (albumin),"hepatocytes; 10 μM compound, with EGF",no change was observed
same,synthesis of DNA by the hepatocytes,"hepatocytes; 10 μM compound, with EGF",significantly increased
same,synthesis of DNA by the hepatocytes,hepatocytes; without EGF,not recognized to promote the synthesis of DNA
same,synthesis of DNA by the star cells,Ito (star) cells; [3],lowered depending on the amount of the invention compound
same,synthesis of collagen by the star cells,Ito (star) cells; [3],lowered depending on the amount of the invention compound
same,expression of αSM,"Ito (star) cells; compound with b-FGF, quantity-dependent",allowed to recover by the addition of the invention compound in a quantity-dependent manner
same,expression of α2-smooth muscle actin (αSM),"Ito (star) cells; compound, absence of b-FGF",lowered by the addition of the invention compound
same,area of the wounded region (mean±S.D.),"[1]; EGF + 0.01 mM compound, 0th hour",2.06±0.05 mm2
same,area of the wounded region (mean±S.D.),"[1]; EGF + 0.01 mM compound, 12th hour",0.72±0.36 mm2
same,area of the wounded region (mean±S.D.),"[1]; EGF + 0.01 mM compound, 24th hour",0.39±0.04 mm2
same,area of the wounded region (mean±S.D.),"[1]; EGF + 0.01 mM compound, 36th hour",0.05±0.04 mm2
same,area of the wounded region (mean±S.D.),"[1]; EGF + 0.01 mM compound, 48th hour",0 mm2
same,area of the wounded region (mean±S.D.),"[1]; EGF + 0.1 mM compound, 0th hour",2.08±0.08 mm2
same,area of the wounded region (mean±S.D.),"[1]; EGF + 0.1 mM compound, 12th hour",0.80±0.04 mm2
same,area of the wounded region (mean±S.D.),"[1]; EGF + 0.1 mM compound, 24th hour",0.24±0.05 mm2
same,area of the wounded region (mean±S.D.),"[1]; EGF + 0.1 mM compound, 36th hour",0 mm2
same,area of the wounded region (mean±S.D.),"[1]; EGF + 0.1 mM compound, 48th hour",0 mm2
same,effect on EGF-induced acceleration of cell restoration,[1]; compound 0.01-0.1 mM with EGF,further promoted the EGF-induced acceleration of cell restoration in a concentration-dependent fashion
same,repairing effects,"[1]; compound alone 0.01-0.1 mM, absence of EGF",did not show repairing effects in the absence of EGF
bFGF: basic fibroblast growth factor; recombinant human bFGF (product of Genzyme Corporation) in Example 26,formation of a hyaline cartilage matrix,bone defect (tibia),in a small amount
same,number of new blood vessels (M±SE),[2]; bFGF alone 1 ng/ml,4.1±0.4
same,number of new blood vessels (M±SE),[2]; bFGF alone 10 ng/ml,4.3±0.7
same,number of new blood vessels (M±SE),[2]; bFGF alone 100 ng/ml,6.1±1.1
same,expression of αSM,Ito (star) cells; b-FGF alone,lowered by the presence of b-FGF
